For experiment [1], the system named is human hepatocellular carcinoma cell line (HepG2). Kind of experiment: MTT tumor cell proliferation assay (HepG2). Format: cell-based. The conditions noted are these: HepG2, positive control. How it is done:
The MTT assay was used for measuring the proliferation of the tumor cells. Briefly, human hepatocellular carcinoma cell line (HepG2), human breast adenocarcinoma cell line (MCF7), human lung adenocarcinoma cell line (H1975) and Human melanoma cell line (A375) were seeded at a density of 4×10^4 cells/mL in a volume of 0.1 mL in 96-well plates, respectively. After 24 h, different concentrations of EPCx (1.0, 0.1 and 0.01 mg/ml) were dissolved in the medium was added to each well and incubated for 48 h at 37° C. in a CO2 incubator. 5-Fu (5-fluorouracil) was used as the positive control. After the incubation, 20 μL of MTT solution (5 mg/mL) were added into each well and followed by further incubation for 4-5 h. The culture media were then removed and 100 μL of DMSO was added to each well for 1 h. Absorbance at 570 nm was detected by microplate ELISA reader.

Experiment [2] relates to TNF-α. Kind of experiment: Real-time PCR of TNF-α mRNA in THP-1 cells stressed with LPS. The conditions noted are these: human monocyte-like cells (THP-1), LPS 10 μg/ml alone. Format: cell-based. As for the experimental part: (§1) The capacity of EPS to modulate the inflammatory response was evaluated in vitro in human primary keratinocytes (HEK) and human monocyte-like cells (THP-1) stressed with LPS (lipopolysaccharide). The cells were pretreated with different concentrations of exopolysaccharide-protein complex (1, 0.1 and 0.01 mg/ml) for 24 h and with 10 μg/ml of LPS for 24 h. Controls of HEK and THP-1 cells treated only with the different concentrations of exopolysaccharide-protein complex (1.0, 0.1 and 0.01 mg/ml) were also prepared.
(§2) Expression of mRNA for the cytokines IL-6, IL-8, IL-10 and TNF-α was analyzed by real-time PCR and the NF-κB activation was measured using a luciferase reporter gene assay.
(§3) Real-time PCR: Total RNA was extracted with the RNA Isolation Kit (ThermoFischer Scientific) according to the manufacturer's recommendations. 1 ng of RNA was reverse transcribed into complementary DNA (cDNA) using Superscript One-Step RT-PCR kit with platinum Taq according to the instructions (Invitrogen). Quantification rests on the measure of threshold cycles (CT), which are measured at the beginning of the exponential phase of the reaction and on the normalization of the internal standard curve obtained with the reference gene.

The subject of experiment [3] is IL-6. The experiment can be described thus: Real-time PCR of IL-6 mRNA in keratinocytes stressed with LPS. In kind it is cell-based, human. The conditions noted are these: LPS 10 μg/ml alone. As for the experimental part:
as §1, §2, §3

Experiment [4] deals with IL-10. The experiment can be described thus: Real-time PCR of IL-10 mRNA in keratinocytes stressed with LPS. The conditions noted are these: LPS 10 μg/ml alone. Format: cell-based, human. As for the experimental part: as §1, §2, §3
Experiment [5] concerns TNF-α. Kind of experiment: Real-time PCR of TNF-α mRNA in keratinocytes stressed with LPS. In kind it is cell-based, human. Conditions: LPS 10 μg/ml alone. As for the experimental part: as §1, §2, §3
The subject of experiment [6] is IL-10. Kind of experiment: Real-time PCR of IL-10 mRNA in THP-1 cells stressed with LPS. In kind it is cell-based. Conditions: human monocyte-like cells (THP-1), LPS 10 μg/ml alone. As for the experimental part:
as §1, §2, §3
(Real-time PCR tracks product formation cycle by cycle.)

For experiment [7], the system named is IL-8. Kind of experiment: Real-time PCR of IL-8 mRNA in THP-1 cells stressed with LPS. In kind it is cell-based. The conditions noted are these: human monocyte-like cells (THP-1), LPS 10 μg/ml alone. How it is done:
as §1, §2, §3

Experiment [8] deals with IL-8. Kind of experiment: Real-time PCR of IL-8 mRNA in keratinocytes stressed with LPS. Format: cell-based, human. Conditions: LPS 10 μg/ml alone. How it is done:
as §1, §2, §3

Experiment [9] deals with IL-6. The experiment can be described thus: Real-time PCR of IL-6 mRNA in THP-1 cells stressed with LPS. In kind it is cell-based. The conditions noted are these: human monocyte-like cells (THP-1), LPS 10 μg/ml alone. How it is done: as §1, §2, §3

What is called IC50 is the concentration at which inhibition is half-maximal. A high value points to lower potency. In experiment [1], `O=c1[nH]cc(F)c(=O)[nH]1` [5-fluorouracil] had an IC50 of 10 µM.
On to lipopolysaccharide [LPS], for which the “Gene expression (mRNA, real-time PCR) TNF-α” value with TNF-α [2] and in the experiment with TNF-α [5] was 67 in each case. For the same compound, the “Gene expression (mRNA, real-time PCR) IL-6” value in the experiment on IL-6 [3] came to 62; in the experiment with IL-6 [9], 73. Further, the “Gene expression (mRNA, real-time PCR) IL-10” value in the experiment on IL-10 [4] is reported as 7; in the experiment on IL-10 [6] it was 5. The “Gene expression (mRNA, real-time PCR) IL-8” value was determined as 82 in the experiment with IL-8 [7] and 59 in the experiment on IL-8 [8].

Source of the values: patent US11253457B2, “Exopolysaccharide-protein complex, a method of preparing said complex and uses thereof” (INSTITUT UNIV. DE CIÈNCIA I TECNOLOGIA, S.A., priority 2016, dated 2022).
